Experimental data published in patent US5691338A, “1,2-dithiole-3 thiones for the treatment of reverse transcriptase-dependent viral infections” (priority 1995, dated 1997).
pIC50: −log10 of the molar value.

Assays:
HIV-1 [1] = conditions: cited from earlier work
HIV-1 (HTLVIIIB) = experiment: microbe, parasite or virus in culture; conditions: Human immunodeficiency virus 1, H9, read-out: median dose (p24 release)
Method: The effects for test compounds were assessed by means of both IFA and p24 release. In general, the following protocol was followed: H9 cells were infected with HIV-1 at 1000 50% infective doses of viruses/10^6 cells. Virus was allowed to adsorb for 1 h, after which unadsorbed virus was removed by centrifugation. The cells were resuspended and washed twice with PBS (without Ca^+2 or Mg^+2 salts) and centrifuged to collect the cell pellet (150×g×10 min). Cells were suspended in fresh medium and added at a final cell density of 500,000 cells/ml in a 96-well plate with media containing 0.1% DMSO and various concentrations of test compounds. The cells were re-fed freshly prepared media containing 0.1% DMSO±test compounds on day four (for preinduction experiments, cells were exposed to inducers on days -2, 0, and +4 days relative to infection). After seven days, cells were examined for cytoxicity by trypan blue exclusion, the degree of infection with HIV-1 by IFA, and the supernatants were assayed for p24 levels according to the manufacturer's directions. The IFA procedure can be summarized as follows: The cells were washed twice in PBS and were placed in 5 mm 12-well slides. After allowing the slides to dry and fixing the cells with acetone for 5 min, 10 μl of HIV-1 positive serum in 40 μl PBS was added to each well and allowed to incubate at 37° C. for 30 min. After incubation, the slides were washed twice with PBS and incubated at 37° C. for 30 min with 2.5 μl goat anti-human IgG-fluorescein isothiocyanate conjugate in 50 μl PBS containing 0.01% Evans Blue per well. The slides were then washed twice with PBS, dried, and mounted with 50% glycerol in PBS, and scored for the percentage of fluorescent cells by fluorescent microscopy.
Statistical significance for GSH and QR levels were established by the unpaired t test using the INSTAT statistics program (Graphpad, San Diego, Calif.). The Ki of oltipraz was determined by performing Segal transformations (26) of Dixon plots. […] Calculations were performed on spreadsheets using Lotus 1-2-3 software (Cambridge, Mass.).

HIV-1 [2] = conditions: HIV-1 infected patients, pharmacokinetics study; cited from earlier work

SMILES | synergy with anti-HIV-1 drugs (HIV-1 [1]; in vitro, Kong et al.) | pIC50 (HIV-1 (HTLVIIIB)) | inhibition of HIV-1 replication (HIV-1 [1]; cultured cells) | effect on surrogate markers for HIV-1 (HIV-1 [2])
Cc1cn([C@H]2C[C@H](N=[N+]=[N-])[C@@H](CO)O2)c(=O)[nH]c1=O [AZT, 3'-azido-3'-deoxythymidine] | synergistic with anti-HIV-1 drugs such as phosphonoformate | 7.35 | – | –
CC(=O)N[C@@H](CS)C(=O)O [N-acetylcysteine] | – | – | effectively inhibit the replication of HIV-1 | did not alter surrogate markers for HIV-1
